Test results reported in US20240409585A1, “MACROCYCLIC IMMUNOMODULATORS” (priority 2021, published 2024).
Bridge positions count the residues as written; N and C are the ends. Square brackets hold non-standard residues; d marks the D form. Peptide text beside a SMILES is read from it. * marks the point of attachment. Phe(4-COOH) = N[C@@H](Cc1ccc(C(=O)O)cc1)C(=O)O; Bip = N[C@@H](Cc1ccc(-c2ccccc2)cc1)C(=O)O; Phe(3-OMe) = COc1cccc(C[C@H](N)C(=O)O)c1; Phe(3-Me) = Cc1cccc(C[C@H](N)C(=O)O)c1; Phe(2-F) = N[C@@H](Cc1ccccc1F)C(=O)O; 4Pal = N[C@@H](Cc1ccncc1)C(=O)O; Cha = N[C@@H](CC1CCCCC1)C(=O)O; Cit = NC(=O)NCCC[C@H](N)C(=O)O; Carboxymethyl = O=C(O)C*; NMeA = CN[C@@H](C)C(=O)O; Dab = NCC[C@H](N)C(=O)O; Dap = NC[C@H](N)C(=O)O

Target: T1, PE-labeled human PD-L1-Ig binding to Jurkat cell line over-expressing human PD-1 (Jurkat-PD-1) (Homo sapiens, UniProt Q15116)
T1 construct: expressed in transfected cells; host or cells: Jurkat
Assay: Jurkat-PD-1 Cell Binding High-Content Screening Assay (CBA): Method 1
Settings: Jurkat HPDL1 PD1 IC50 (Method 1), cells printed in nM, Jurkat-hPD-1 cells, PE-labeled PD-L1-Ig 20 nM final; unit nM

T1 sequence (Q15116 25-288): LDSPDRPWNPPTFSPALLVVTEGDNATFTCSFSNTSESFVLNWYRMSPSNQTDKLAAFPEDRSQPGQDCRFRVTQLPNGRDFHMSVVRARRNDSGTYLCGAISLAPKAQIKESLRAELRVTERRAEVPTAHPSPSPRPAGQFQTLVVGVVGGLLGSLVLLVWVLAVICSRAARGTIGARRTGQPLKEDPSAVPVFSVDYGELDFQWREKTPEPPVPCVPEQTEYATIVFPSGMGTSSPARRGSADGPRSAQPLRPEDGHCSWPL

Row | Compound | IC50
1 | CC(C)C[C@@H]1NC(=O)[C@H](CCN)NC(=O)[C@@H](CC(C)C)NC(=O)[C@H](C)N(C)C(=O)[C@H](C(C)C)NC(=O)[C@H](Cc2ccc(-c3ccccc3)cc2)NC(=O)[C@H](C(C)C)NC(=O)[C@H](Cc2c[nH]c3ccccc23)NC(=O)[C@H](CC(=O)O)NC(=O)[C@H](Cc2ccc(C(=O)O)cc2)NC(=O)[C@H](CN)NC(=O)CSC[C@@H](C(=O)N[C@@H](C)C(N)=O)NC(=O)[C@H]([C@@H](C)O)NC(=O)[C@H](C(C)C)NC1=O [Compound 1416] ({CH2CO}-[Dap][Phe(4-COOH)]DWV[Bip]V[NMeA][dL][Dab]LVTCA-NH2; thioether N-14) | 4.7 nM

Same assay, conditions: Jurkat-hPD-1 cells, PE-labeled PD-L1-Ig 20 nM final; read-out: Jurkat HPDL1 PD1 IC50 (uM) (Method 1)

Row | Compound | IC50
2 | Cc1cccc(C[C@@H]2NC(=O)[C@H](CC(=O)O)NC(=O)[C@H](Cc3ccc(C(=O)O)cc3)NC(=O)[C@H](CN)NC(=O)CSC[C@@H](C(=O)N[C@@H](C)C(N)=O)NC(=O)[C@H]([C@@H](C)O)NC(=O)[C@H](C(C)C)NC(=O)[C@H](CC(C)C)NC(=O)[C@H](CCN)NC(=O)[C@@H](CC(C)C)NC(=O)[C@H](C)N(C)C(=O)[C@H](C(C)C)NC(=O)[C@H](Cc3ccc(-c4ccccc4)cc3)NC(=O)[C@H](C(C)C)NC2=O)c1 [Compound 1415] ({CH2CO}-[Dap][Phe(4-COOH)]D[Phe(3-Me)]V[Bip]V[NMeA][dL][Dab]LVTCA-NH2; thioether N-14) | 40 nM
3 | Cc1cccc(C[C@@H]2NC(=O)[C@H](CC(=O)O)NC(=O)[C@H](Cc3ccc(OCC(=O)O)cc3)NC(=O)[C@H](CN)NC(=O)CSC[C@@H](C(=O)N[C@@H](C)C(N)=O)NC(=O)[C@H]([C@@H](C)O)NC(=O)[C@H](C(C)C)NC(=O)[C@H](CC(C)C)NC(=O)[C@H](CCN)NC(=O)[C@@H](CC(C)C)NC(=O)[C@H](C)N(C)C(=O)[C@H](C(C)C)NC(=O)[C@H](Cc3ccc(-c4ccccc4)cc3)NC(=O)[C@H](C(C)C)NC2=O)c1 [Compound 1418] ({CH2CO}-[Dap]Y(Carboxymethyl)D[Phe(3-Me)]V[Bip]V[NMeA][dL][Dab]LVTCA-NH2; thioether N-14) | 10 nM
4 | Cc1cccc(C[C@@H]2NC(=O)[C@H](CC(=O)O)NC(=O)[C@H](Cc3ccc(OCC(=O)O)cc3)NC(=O)[C@H](Cc3ccncc3)NC(=O)CSC[C@@H](C(=O)N[C@@H](C)C(N)=O)NC(=O)[C@H]([C@@H](C)O)NC(=O)[C@H](C(C)C)NC(=O)[C@H](CC(C)C)NC(=O)[C@H](CCN)NC(=O)[C@@H](CC(C)C)NC(=O)[C@H](C)N(C)C(=O)[C@H](C(C)C)NC(=O)[C@H](Cc3ccc(-c4ccccc4)cc3)NC(=O)[C@H](C(C)C)NC2=O)c1 [Compound 1419] ({CH2CO}-[4Pal]Y(Carboxymethyl)D[Phe(3-Me)]V[Bip]V[NMeA][dL][Dab]LVTCA-NH2; thioether N-14) | 10 nM
5 | Cc1cccc(C[C@@H]2NC(=O)[C@H](CC(=O)O)NC(=O)[C@H](Cc3ccc(C(=O)O)cc3)NC(=O)[C@H](Cc3ccncc3)NC(=O)CSC[C@@H](C(=O)N[C@@H](C)C(N)=O)NC(=O)[C@H]([C@@H](C)O)NC(=O)[C@H](C(C)C)NC(=O)[C@H](CC(C)C)NC(=O)[C@H](CCN)NC(=O)[C@@H](CC(C)C)NC(=O)[C@H](C)N(C)C(=O)[C@H](C(C)C)NC(=O)[C@H](Cc3ccc(-c4ccccc4)cc3)NC(=O)[C@H](C(C)C)NC2=O)c1 [Compound 1420] ({CH2CO}-[4Pal][Phe(4-COOH)]D[Phe(3-Me)]V[Bip]V[NMeA][dL][Dab]LVTCA-NH2; thioether N-14) | 10 nM
6 | Cc1cccc(C[C@@H]2NC(=O)[C@H](CC(=O)O)NC(=O)[C@H](Cc3ccc(OCC(=O)O)cc3)NC(=O)[C@H](Cc3ccncc3)NC(=O)CSC[C@@H](C(=O)N[C@@H](C)C(N)=O)NC(=O)[C@H]([C@@H](C)O)NC(=O)[C@H](C(C)C)NC(=O)[C@H](CC(C)C)NC(=O)[C@H](CCN)NC(=O)[C@@H](CC(C)C)NC(=O)[C@H](C)N(C)C(=O)[C@H](CCCNC(N)=O)NC(=O)[C@H](Cc3ccc(-c4ccccc4)cc3)NC(=O)[C@H](C(C)C)NC2=O)c1 [Compound 1421] ({CH2CO}-[4Pal]Y(Carboxymethyl)D[Phe(3-Me)]V[Bip][Cit][NMeA][dL][Dab]LVTCA-NH2; thioether N-14) | 10 nM
7 | CC(C)C[C@@H]1NC(=O)[C@H](Cc2c[nH]c3ccccc23)NC(=O)[C@H](CC(=O)O)NC(=O)[C@H](Cc2ccc(C(=O)O)cc2)NC(=O)[C@H](Cc2ccc(OCC(=O)O)cc2)NC(=O)CSC[C@@H](C(N)=O)NC(=O)[C@H](CO)NC(=O)[C@H](C(C)C)NC(=O)[C@H](CC2CCCCC2)NC(=O)[C@H](CCN)NC(=O)[C@@H](CC(C)C)NC(=O)[C@H](C)N(C)C(=O)[C@H](C(C)C)NC(=O)[C@H](Cc2ccc(-c3ccccc3)cc2)NC1=O [Compound 1426] ({CH2CO}-Y(Carboxymethyl)[Phe(4-COOH)]DWL[Bip]V[NMeA][dL][Dab][Cha]VSC-NH2; thioether N-14) | 10 nM

Other lines, results leading:

Row | IC50 | Compound
8 | 50 nM | CC[C@H](C)[C@@H]1NC(=O)[C@H](Cc2ccc(-c3ccccc3)cc2)NC(=O)[C@H](C(C)C)NC(=O)[C@H](Cc2c[nH]c3ccccc23)NC(=O)[C@H](CC(=O)O)NC(=O)[C@H](Cc2ccc(C(=O)O)cc2)NC(=O)[C@H](CN)NC(=O)CSC[C@@H](C(=O)N[C@@H](C)C(N)=O)NC(=O)[C@H]([C@@H](C)O)NC(=O)[C@H](C(C)C)NC(=O)[C@H](CC(C)C)NC(=O)[C@H](CCN)NC(=O)[C@@H](CC(C)C)NC(=O)[C@H](C)N(C)C1=O [Compound 1412] ({CH2CO}-[Dap][Phe(4-COOH)]DWV[Bip]I[NMeA][dL][Dab]LVTCA-NH2; thioether N-14)
9 | 30 nM | CC[C@H](C)[C@@H]1NC(=O)[C@H](Cc2ccc(-c3ccccc3)cc2)NC(=O)[C@H](C(C)C)NC(=O)[C@H](Cc2c[nH]c3ccccc23)NC(=O)[C@H](CC(=O)O)NC(=O)[C@H](Cc2ccc(OCC(=O)O)cc2)NC(=O)[C@H](Cc2ccncc2)NC(=O)CSC[C@@H](C(=O)N[C@@H](C)C(N)=O)NC(=O)[C@H]([C@@H](C)O)NC(=O)[C@H](C(C)C)NC(=O)[C@H](CC(C)C)NC(=O)[C@H](CCN)NC(=O)[C@@H](CC(C)C)NC(=O)[C@H](C)N(C)C1=O [Compound 1413] ({CH2CO}-[4Pal]Y(Carboxymethyl)DWV[Bip]I[NMeA][dL][Dab]LVTCA-NH2; thioether N-14)
10 | 100 nM | CC[C@H](C)[C@@H]1NC(=O)[C@H](Cc2ccc(-c3ccccc3)cc2)NC(=O)[C@H](C(C)C)NC(=O)[C@H](Cc2c[nH]c3ccccc23)NC(=O)[C@H](CC(=O)O)NC(=O)[C@H](Cc2ccc(O)cc2)NC(=O)[C@H](CN)NC(=O)CSC[C@@H](C(=O)N[C@@H](C)C(N)=O)NC(=O)[C@H]([C@@H](C)O)NC(=O)[C@H](C(C)C)NC(=O)[C@H](CC(C)C)NC(=O)[C@H](CCN)NC(=O)[C@@H](CC(C)C)NC(=O)[C@H](C)N(C)C1=O [Compound 1414] ({CH2CO}-[Dap]YDWV[Bip]I[NMeA][dL][Dab]LVTCA-NH2; thioether N-14)
11 | 50 nM | Cc1cccc(C[C@@H]2NC(=O)[C@H](CC(=O)O)NC(=O)[C@H](Cc3ccc(O)cc3)NC(=O)[C@H](CN)NC(=O)CSC[C@@H](C(=O)N[C@@H](C)C(N)=O)NC(=O)[C@H]([C@@H](C)O)NC(=O)[C@H](C(C)C)NC(=O)[C@H](CC(C)C)NC(=O)[C@H](CCN)NC(=O)[C@@H](CC(C)C)NC(=O)[C@H](C)N(C)C(=O)[C@H](CCCNC(N)=O)NC(=O)[C@H](Cc3ccc(-c4ccccc4)cc3)NC(=O)[C@H](C(C)C)NC2=O)c1 [Compound 1422] ({CH2CO}-[Dap]YD[Phe(3-Me)]V[Bip][Cit][NMeA][dL][Dab]LVTCA-NH2; thioether N-14)
12 | 70 nM | COc1cccc(C[C@@H]2NC(=O)[C@H](CN)NC(=O)CSC[C@@H](C(=O)N[C@@H](C)C(N)=O)NC(=O)[C@H]([C@@H](C)O)NC(=O)[C@H](C(C)C)NC(=O)[C@H](CC(C)C)NC(=O)[C@H](CCN)NC(=O)[C@@H](CC(C)C)NC(=O)[C@H](C)N(C)C(=O)[C@H](Cc3cnc[nH]3)NC(=O)[C@H](Cc3ccc(-c4ccccc4)cc3)NC(=O)[C@H](C(C)C)NC(=O)[C@H](Cc3c[nH]c4ccccc34)NC(=O)[C@H](CC(=O)O)NC2=O)c1 [Compound 1423] ({CH2CO}-[Dap][Phe(3-OMe)]DWV[Bip]H[NMeA][dL][Dab]LVTCA-NH2; thioether N-14)
13 | 50 nM | CC(C)C[C@@H]1NC(=O)[C@H](CCN)NC(=O)[C@@H](CC(C)C)NC(=O)[C@H](C)N(C)C(=O)[C@H](Cc2cnc[nH]2)NC(=O)[C@H](Cc2ccc(-c3ccccc3)cc2)NC(=O)[C@H](C(C)C)NC(=O)[C@H](Cc2c[nH]c3ccccc23)NC(=O)[C@H](CC(=O)O)NC(=O)[C@H](Cc2ccc(O)cc2)NC(=O)[C@H](CN)NC(=O)CSC[C@@H](C(=O)N[C@@H](C)C(N)=O)NC(=O)[C@H]([C@@H](C)O)NC(=O)[C@H](C(C)C)NC1=O [Compound 1424] ({CH2CO}-[Dap]YDWV[Bip]H[NMeA][dL][Dab]LVTCA-NH2; thioether N-14)
14 | 140 nM | CC(C)C[C@@H]1NC(=O)[C@H](CCN)NC(=O)[C@@H](CC(C)C)NC(=O)[C@H](C)N(C)C(=O)[C@H](Cc2cnc[nH]2)NC(=O)[C@H](Cc2ccc(-c3ccccc3)cc2)NC(=O)[C@H](C(C)C)NC(=O)[C@H](Cc2c[nH]c3ccccc23)NC(=O)[C@H](CC(=O)O)NC(=O)[C@H](Cc2ccccc2F)NC(=O)[C@H](CN)NC(=O)CSC[C@@H](C(=O)N[C@@H](C)C(N)=O)NC(=O)[C@H]([C@@H](C)O)NC(=O)[C@H](C(C)C)NC1=O [Compound 1425] ({CH2CO}-[Dap][Phe(2-F)]DWV[Bip]H[NMeA][dL][Dab]LVTCA-NH2; thioether N-14)
15 | 110 nM | COc1cccc(C[C@@H]2NC(=O)[C@H](CN)NC(=O)CSC[C@@H](C(=O)N[C@@H](C)C(N)=O)NC(=O)[C@H]([C@@H](C)O)NC(=O)[C@H](C(C)C)NC(=O)[C@H](CC(C)C)NC(=O)[C@H](CCN)NC(=O)[C@@H](CC(C)C)NC(=O)[C@H](C)N(C)C(=O)[C@H](C(C)C)NC(=O)[C@H](Cc3ccc(-c4ccccc4)cc3)NC(=O)[C@H](C(C)C)NC(=O)[C@H](Cc3c[nH]c4ccccc34)NC(=O)[C@H](CC(=O)O)NC2=O)c1 [Compound 1427] ({CH2CO}-[Dap][Phe(3-OMe)]DWV[Bip]V[NMeA][dL][Dab]LVTCA-NH2; thioether N-14)
